Test results from patent publication US7445921B2, “Transglycosylation method and protein having transglycosylation activity” (priority 2004, dated 2008).
No end group written: not given here.

How the values were obtained:
[1] = test system: recombinant endo-α-GalNAc-ase; test: Transglycosylation into polypeptide (HPLC, MALDI-TOF-MS); type: biochemical, Bifidobacterium longum JCM1217; conditions: donor Galβ1-3GalNAcα1-pNP, sodium phosphate buffer pH 6, 37° C., one hour, HPLC product peak
Description: First, an enzymatic reaction of recombinant endo-α-GalNAc-ase purified in (7) was performed with Galβ1-3GalNAcα1-pNP as the sugar chain donor and peptide-T (see SEQ ID: 16), PAMP-12 (an amino acid sequence shown in SEQ ID: 17 with an amino group attached at C-end of the sequence) and bradykinin (see SEQ ID: 18) as the sugar chain acceptor.
That is, 10 μl of Galβ1-3GalNAcα1-pNP, 6 μl solution of each polypeptide as the acceptor and 1.5 μl of NaP (sodium phosphate) buffer (500 mM, pH 6) were mixed. The sugar chain donor, Galβ1-3GalNAcα1-pNP was used at a concentration of 10 mM, and for the peptide solution, each of 50 mM peptide-T, 50 mM bradykinin, and 10 mM PAMP-12 was used. A solution obtained by mixing was warmed up to 37° C., subsequently 2.5 μl of endo-α-GalNAc-ase (1.55 unit/ml) was added thereto, which was then incubated in a water bath at 37° C. for one hour. Subsequently, the enzyme was inactivated by boiling for 3 to 5 minutes.
Each reaction solution obtained in the aforementioned enzymatic reaction was applied to an HPLC analysis, and reaction products were analyzed and fractionated. […] UV (wavelength 214 nm) spectra were detected.
Detected results of each reaction solution for peptide-T, PAMP-12 and bradykinin are shown in FIGS. 5A, 5B and 5C, respectively.
The fractions fractionated by the aforementioned HPLC were analyzed by MALDI-TOF-MS. […]
Target sequence in this assay (as listed by the source): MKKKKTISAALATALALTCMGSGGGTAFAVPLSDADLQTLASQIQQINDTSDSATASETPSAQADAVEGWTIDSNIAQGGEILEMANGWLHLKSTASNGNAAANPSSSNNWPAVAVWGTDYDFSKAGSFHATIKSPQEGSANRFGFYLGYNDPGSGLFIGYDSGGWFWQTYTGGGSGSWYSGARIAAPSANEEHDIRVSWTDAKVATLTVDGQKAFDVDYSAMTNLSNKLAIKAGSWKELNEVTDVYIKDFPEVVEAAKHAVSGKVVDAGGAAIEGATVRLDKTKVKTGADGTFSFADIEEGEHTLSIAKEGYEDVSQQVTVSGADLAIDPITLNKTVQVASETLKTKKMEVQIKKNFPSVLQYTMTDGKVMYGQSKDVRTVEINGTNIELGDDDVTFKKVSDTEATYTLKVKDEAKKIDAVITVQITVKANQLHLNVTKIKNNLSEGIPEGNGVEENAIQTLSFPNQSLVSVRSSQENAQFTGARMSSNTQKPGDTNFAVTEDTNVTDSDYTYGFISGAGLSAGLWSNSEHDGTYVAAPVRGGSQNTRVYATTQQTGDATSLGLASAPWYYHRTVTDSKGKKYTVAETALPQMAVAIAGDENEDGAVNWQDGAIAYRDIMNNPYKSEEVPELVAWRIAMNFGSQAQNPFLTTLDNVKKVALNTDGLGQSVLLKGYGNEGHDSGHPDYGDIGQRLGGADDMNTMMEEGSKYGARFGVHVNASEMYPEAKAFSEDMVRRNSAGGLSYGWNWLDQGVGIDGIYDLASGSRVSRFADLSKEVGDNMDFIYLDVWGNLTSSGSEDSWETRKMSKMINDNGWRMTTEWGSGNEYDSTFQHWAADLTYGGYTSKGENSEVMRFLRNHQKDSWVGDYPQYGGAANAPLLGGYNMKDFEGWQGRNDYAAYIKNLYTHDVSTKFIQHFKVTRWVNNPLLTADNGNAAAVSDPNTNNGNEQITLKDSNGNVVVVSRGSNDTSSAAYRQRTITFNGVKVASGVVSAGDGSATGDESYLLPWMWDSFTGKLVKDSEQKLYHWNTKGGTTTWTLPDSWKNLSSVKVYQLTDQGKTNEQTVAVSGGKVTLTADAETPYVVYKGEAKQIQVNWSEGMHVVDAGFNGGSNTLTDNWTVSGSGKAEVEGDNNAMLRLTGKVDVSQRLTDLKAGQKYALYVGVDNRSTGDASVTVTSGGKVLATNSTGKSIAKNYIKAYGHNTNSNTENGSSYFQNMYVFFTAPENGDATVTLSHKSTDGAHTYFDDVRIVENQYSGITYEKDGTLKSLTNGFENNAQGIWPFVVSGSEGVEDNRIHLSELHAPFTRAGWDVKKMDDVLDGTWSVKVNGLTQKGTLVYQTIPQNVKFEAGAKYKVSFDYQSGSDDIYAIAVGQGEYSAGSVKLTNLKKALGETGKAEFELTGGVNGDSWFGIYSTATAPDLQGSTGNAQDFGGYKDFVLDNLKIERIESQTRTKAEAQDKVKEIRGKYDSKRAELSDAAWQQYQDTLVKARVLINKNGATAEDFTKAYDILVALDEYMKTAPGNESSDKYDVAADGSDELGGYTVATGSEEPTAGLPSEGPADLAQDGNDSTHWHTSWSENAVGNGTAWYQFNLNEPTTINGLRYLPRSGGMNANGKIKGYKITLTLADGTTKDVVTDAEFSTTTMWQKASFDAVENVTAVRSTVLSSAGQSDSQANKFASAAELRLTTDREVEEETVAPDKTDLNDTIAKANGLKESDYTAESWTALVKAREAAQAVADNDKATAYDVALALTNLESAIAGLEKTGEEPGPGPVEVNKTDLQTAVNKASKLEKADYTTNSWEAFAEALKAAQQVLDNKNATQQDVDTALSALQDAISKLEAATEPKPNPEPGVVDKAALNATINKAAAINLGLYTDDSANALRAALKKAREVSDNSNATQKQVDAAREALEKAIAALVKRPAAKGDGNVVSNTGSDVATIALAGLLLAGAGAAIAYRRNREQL

[2] = test system: recombinant endo-α-GalNAc-ase; conditions: substance as sugar source 1.2 mM, TLC
Description: The reaction system for measurement of transglycosylation activity was carried out by using the sugar chain donor Galβ1-3GalNAcα1-pNP at a final concentration of 2 mM, the acceptor 1-alkanol at a final concentration of 15% (v/v) and the purified enzyme (recombinant endo-α-GalNAc-ase) at a final concentration of 6.8 units/L in a 50 mM potassium phosphate buffer, pH 7.0.

Compound | Transfer of disaccharide (Gal-GalNAc) to the peptide acceptor [1] | Formation of product spot in reaction with methanol as acceptor (transglycosylation vs reverse hydrolysis) [2]
PAMP-12: amino acid sequence shown in SEQ ID: 17 with an amino group attached at C-end; sugar chain acceptor (FRKKWNKWALSR-NH2; listed as Homo sapiens) | disaccharide (Gal-GalNAc) had been transferred | 
CC(=O)N[C@H]1[C@@H](Oc2ccc([N+](=O)[O-])cc2)O[C@H](CO)[C@H](O)[C@@H]1O[C@@H]1O[C@H](CO)[C@H](O)[C@H](O)[C@H]1O [Galβ1-3GalNAcα1-pNP, galactosyl β1→3N-acetylgalactosaminyl α1-p-nitrophenol, reference compound] |  | formed
CC(=O)N[C@H]1C(O)O[C@H](CO)[C@H](O)[C@@H]1O[C@@H]1O[C@H](CO)[C@H](O)[C@H](O)[C@H]1O (stereo partly drawn) [Galβ1-3GalNAc, galactosyl β1→3N-acetylgalactosamine] |  | not formed
